According to US9079821B2, “Quinone based nitric oxide donating compounds” (NICOX S.A., priority 2011, dated 2015):
Blank lines part the entries; values can stand above or below the compound they belong to.

Experiments:
[1] = Pharmacokinetic profile in mice (blood 15N-nitrite levels); type: in vivo; settings: CD1 mice
Method: (§1) The absorption and in vivo NO-donating property of the compounds of the invention were assessed by the evaluation of blood ^15N-nitrite levels following oral administration.
Tested Compounds: • 10-(4,5-dimethoxy-2-methyl-3,6-dioxocyclohexa-1,4-dienyl)decyl nitrate-nitrogen-15 which correspond to compound (6) containing nitrogen-15 (^15N-Compound (6)); • 5-isorbide mononitrate containing nitrogen-15 (5-ISM^15N)
Male CD1 mice (n=3/time point) were orally treated with ^15N-Compound (6) at 100 mg/kg or 5-ISM^15N (30 mg/kg). At each time point (5, 10, 15, 30, 60, 120, 240, 360, 480 and 1440 min) blood was taken by cardiac puncture using heparin to avoid blood clotting. Blood samples were immediately protein crushed. Samples were analyzed by LC-MS/MS. ^15N-nitrite levels following oral administration of Compound (6) (100 mg/kg) or 5-ISM^15N (30 mg/kg) in CD1 mice are reported in Table 6.

[2] = Pharmacokinetic profile in rats (blood 15N-nitrite levels); type: in vivo, rat; settings: rat, in vivo, po, 30 mg/kg
Method: as §1
Tested Compounds: • 5-(2,4,5-trimethyl-3,6-dioxocyclohexa-1,4-dienylpentyl nitrate-nitrogen-15 which corresponds to compound (1) containing nitrogen-15 (^15N-Compound (1)); • 5-(4,5-dimethoxy-2-methyl-3,6-dioxocyclohexa-1,4-dienyl)pentyl nitrate-nitrogen-15 which corresponds to compound (2) containing nitrogen-15 (^15N-Compound (2)); • 4-(2,4,5-trimethyl-3,6-dioxocyclohexa-1,4-dienyl)butyl nitrate-nitrogen-15 which corresponds to compound (3) containing nitrogen-15 (^15N-Compound (3)); • 4-(4,5-dimethoxy-2-methyl-3,6-dioxocyclohexa-1,4-dienyl)butyl nitrate-nitrogen-15 which corresponds to compound (4) containing nitrogen-15 (^15N-Compound (4)); • 10-(2,4,5-trimethyl-3,6-dioxocyclohexa-1,4-dienyl)decyl nitrate-nitrogen-15 which corresponds to compound (5) containing nitrogen-15 (^15N-Compound (5)); • 10-(4,5-dimethoxy-2-methyl-3,6-dioxocyclohexa-1,4-dienyl)decyl nitrate-nitrogen-15 which corresponds to compound (6) containing nitrogen-15 (^15N-Compound (6)); • 3-(3-(4,5-dimethoxy-2-methyl-3,6-dioxocyclohexa-1,4-dienyl)propoxy)propyl nitrate-nitrogen-15 which corresponds to compound (14) containing nitrogen-15 (^15N-Compound (14)); • 6-(2,4,5-trimethyl-3,6-dioxocyclohexa-1,4-dienyl)hexyl nitrate-nitrogen-15 which corresponds to compound (15) containing nitrogen-15 (^15N-Compound (15)); • 6-(4,5-dimethoxy-2-methyl-3,6-dioxocyclohexa-1,4-dienyl)hexyl nitrate-nitrogen-15 which corresponds to compound (16) containing nitrogen-15 (^15N-Compound (16)); • 11-(4,5-dimethoxy-2-methyl-3,6-dioxocyclohexa-1,4-dienyl)-undecane-1,2-diyl dinitrate-nitrogen-15 which corresponds to compound (17) containing nitrogen-15 (^15N-Compound (17)); • 8-(5-methoxy-2,4-dimethyl-3,6-dioxocyclohexa-1,4-dienyl)octyl nitrate-nitrogen—which corresponds to compound (19) containing nitrogen-15 (^15N-Compound (19)); • 2-(3-(4,5-dimethoxy-2-methyl-3,6-dioxocyclohexa-1,4-dienyl)propoxy)ethyl nitrate-nitrogen-15 which corresponds to compound (20) containing nitrogen-15 (^15N-Compound (20)); • 6-(3-methyl-1,4-dioxo-1,4-dihydronaphthalen-2-yl)hexyl nitrate-nitrogen-15 which corresponds to compound (23) containing nitrogen-15 (^15N-Compound (23)); • 3-(3-(3-methyl-1,4-dioxo-1,4-dihydronaphthalen-2-yl)propoxy)propyl nitrate-nitrogen-15 which corresponds to compound (25) containing nitrogen-15 (^15N-Compound (25)); • 6-(5-methoxy-2,4-dimethyl-3,6-dioxocyclohexa-1,4-dienyl)hexyl nitrate-nitrogen-15 which corresponds to compound (28) containing nitrogen-15 (^15N-Compound (28)); • 6-(4-methoxy-2,5-dimethyl-3,6-dioxocyclohexa-1,4-dienyl)hexyl nitrate-nitrogen-15 which corresponds to compound (29) containing nitrogen-15 (^15N-Compound (29)); • 8-(4-methoxy-2,5-dimethyl-3,6-dioxocyclohexa-1,4-dienyl)octyl nitrate-nitrogen-15 which corresponds to compound (32) containing nitrogen-15 (^15N-Compound (32)); • 8-(2,4,5-trimethyl-3,6-dioxocyclohexa-1,4-dienyl)octyl nitrate-nitrogen-15 which corresponds to compound (34) containing nitrogen-15 (^15N-Compound (34)); • 5-isorbide mononitrate containing nitrogen-15 (5-ISM^15N).
(§2) Cannulated SD rats were orally treated with ^15N-Compounds (6) at 30 mg/kg, 5-ISM^15N (30 mg/kg), or ^15N-Compounds (1)-(5), 14)-(17), (19), (20), (23), (25), (28), (29), (32), (34) at 30 mg/kg. At each time point (5, 10, 15, 30, 60, 180, 360 and 1440 min) blood was taken using heparin to avoid blood clotting. Blood samples were immediately protein crushed. Samples were analyzed by LC-MS/MS.
In Table 7 are reported ^15N-nitrite blood levels following oral administration of SD rats with 5-ISM^15N (30 mg/kg) or with ^15N-labeled corresponding compounds of the invention (30 mg/kg).

[3] = tested on: rat L-NAME-induced hypertension; assay: Rat L-NAME-induced hypertension, systolic blood pressure after single oral dose; type: in vivo; settings: for Delta vs basal (mmHg): 5-ISMN 30 mg/kg oral, L-NAME 50 mg/kg i.p.
Method: To assess the in vivo NO-dependent activity, Compound (6) was evaluated for systolic blood pressure (SBP) reduction efficacy in a rat model of NO-deprivation induced by L-NAME and compared with 5-ISMN.
(§3) Fasted male SD rats (250-300 g, n=3-5 per group), obtained from Harlan Italy (Correzzana, Milan, Italy) were orally treated with tested compounds or vehicle (DMSO:Methocel 1% 2/98 v/v) in a total volume of 4 ml/kg by gavage. At each time point (1, 3, 6 and 24 h) animals were deeply anesthetized with Zoletil® 100 (3 mg/kg), given intramuscularly. Thereafter, a pressure catheter (Samba Sensors, Harvard Apparatus, UK) was introduced into the common carotid artery for central blood pressure measurement. Pressure transducer was connected to a personal computer, in order to allow real time monitor of the pressure tracing. After 10 minutes of basal recording, L-NAME (50 mg/kg) was administered intraperitoneally and the effect on SBP monitored. When the SBP stabilized (5 minutes without variations) the recording was stopped. To further confirm that functional activity was NO-dependent, at each time point blood ^15N-nitrite levels were measured following the procedure described in Example 12.

[4] = Blood 15N-nitrite levels in the rat L-NAME-induced hypertension study; type: in vivo; settings: 5-ISMN 30 mg/kg oral
Method: as §3, §2

[5] = tested on: rat L-NAME-induced hypertension; assay: In vivo tolerance evaluation (L-NAME-induced hypertension after 5-day oral treatment); settings: for Delta vs basal (mmHg): peak effect 1 hour
Method: as §3
To investigate whether the compound (6) induced nitrate tolerance, as observed for most of the drugs belonging to the nitrate class, the L-NAME-induced hypertension rat model described in Example 7 was performed following a repeated oral treatment. Rats were orally treated for 5 days with vehicle, compound (6) (100 mg/kg) or 5-ISMN (30 mg/kg). […] The experiments were performed at the peak effect (1 hour for 5-ISMN and 3 hours for Compound (6)), results are reported in Table 3.

[6] = tested on: isolated aortas from rats; assay: Ex vivo tolerance evaluation (vascular response of isolated aortas from treated rats); type: in vivo, rat; settings: for EC50: vascular response to 5-ISMN, 1 h after last administration
Method: (§4) Thoracic aortas from male New Zealand rabbits or male Sprague Dawley (SD) were used. The aortas were placed immediately in Krebs-HEPES buffer (pH 7.4; composition mM: NaCl 130.0, KCl 3.7, NaHCO3 14.9, KH2PO4 1.2, MgSO4.7H2O 1.2, Glucose 11.0, HEPES 10.0, CaCl2.2H2O 1.6). Connective tissue was removed and aortas were cut into ring segments (4-5 mm in length). Each ring was placed in a 5 mL tissue bath filled with Krebs-HEPES buffer (37° C.) aerated with 95% O2 and 5% CO2 and was attached to a force transducer (Grass FT03), connected to a BIOPAC MP150 System for measurement of the isometric tension. Preparations were allowed to equilibrate for 1 h at a resting tension of 2 g for rabbit aortas and 1 g for rat aortas with changes of the buffer every 15 min. Then the rings were stimulated by exposure to 90 mM KCl (3 times) with intervening washings.
(§5) Rat aorta. After equilibration, rat aortas were precontracted with KCl (90 mM) and, when the contraction was stable, a cumulative concentration-response curve to acetylcholine (ACh, 0.01-100 μM) was added. After washout, the rings were precontracted again with KCl (90 mM). When a steady-state level of contraction was obtained, a cumulative concentration-response curve to the tested compounds (0.01-100 μM) was obtained.
(§6) Data analysis. Results are given as mean±SEM. Vascular responses are expressed as percentage relaxation and plotted vs concentration. The sensitivity of isolated aorta to different vasodilators is expressed as the concentration that elicited 50% of the maximal responses (EC50). Responses are quantified in terms of EC50 and Emax (maximal vasodilating effect) values, obtained from the concentration-response curve by nonlinear curve fitting, using GraphPad software.
Tolerance to nitrate was further investigated assessing the vascular effects of Compound (6) following repeated treatment compared with 5-ISMN. The vascular response to the compound itself was assessed on isolated aortas from rats orally treated for 5 days with Compound (6) (100 mg/kg). The vascular response was performed as described in Example 6.
Vascular responses were performed 1 h (ISMN) or 3 h (Compound (6)) after the last administration, the concentrations of tested compound that elicited the 50% of the maximal responses (EC50) are shown in Table 4.

[7] = tested on: rat aorta, endothelial-dependent vasodilation (response to ACh); assay: Endothelial dysfunction evaluation (vascular response to acetylcholine after treatment); type: in vivo; settings: for % relaxation (Emax): response to ACh
Method: as §4, §5, §6
Endothelial-dependent vasodilation (vascular response to acetylcholine, ACh) was assessed following 5-day treatment with Compound (6) (100 mg/kg) or 5-ISMN (30 mg/kg). A relaxant response to ACh indicated the presence of a functional endothelium. The vascular response was performed as described in Example 6.

SMILES: COC1=C(OC)C(=O)C(CCCCCCCCCCO[N+](=O)[O-])=C(C)C1=O [^15N-Compound (6), 10-(4,5-dimethoxy-2-methyl-3,6-dioxocyclohexa-1,4-dienyl)decyl nitrate-nitrogen-15]
- Cmax ([1]; oral 100 mg/kg): 3.1 ± 0.3 µM
- Cmax [2]: 2.6 ± 0.2 µM

SMILES: O=[N+]([O-])O[C@@H]1CO[C@H]2[C@@H]1OC[C@@H]2O [Compound 5-ISMN, isosorbide-5-mononitrate, reference compound]
- Delta vs basal (mmHg) ([3]; 1 hour): 10.5 ± 6.1 mmHg
- Delta vs basal (mmHg) ([3]; 3 hours): 6.5 ± 2.4 mmHg
- Delta vs basal (mmHg) ([3]; 6 hours): 51.2 ± 5.7 mmHg
- Delta vs basal (mmHg) ([3]; 24 hours): 83 ± 9 mmHg
- time over which L-NAME induced hypertension was counteracted after treatment ([3]; 5-ISMN 30 mg/kg, single oral administration): ≤ 3 h
- 15N-nitrite levels ([4]; 1 hour): 11.0 ± 0.5 µM
- 15N-nitrite levels ([4]; 3 hours): 8.7 ± 0.7 µM
- 15N-nitrite levels ([4]; 6 hours): 6.5 ± 0.5 µM
- 15N-nitrite levels ([4]; 24 hours): 0.34 ± 0.06 µM
- efficacy against L-NAME-induced hypertension after 5-day treatment (nitrate tolerance), in words ([5]; 5-ISMN 30 mg/kg oral, 5 days): did not maintain its efficacy in preventing L-NAME-induced hypertension
- Delta vs basal (mmHg) ([5]; acute treatment, 5-ISMN 30 mg/kg oral): 10.5 ± 6.1 mmHg
- Delta vs basal (mmHg) ([5]; repeated (5 days) oral treatment, 5-ISMN 30 mg/kg): 88 ± 11.5 mmHg
- vascular response of aortas from treated animals vs control arteries, in words ([6]; 5-ISMN 30 mg/kg, repeated treatment): showed a reduced vascular response to 5-ISMN compared to control arteries
- EC50 ([6]; acute, aortas of rats given 5-ISMN 30 mg/kg): 20 ± 0.6 µM
- EC50 ([6]; repeated (5 days oral) 5-ISMN 30 mg/kg): 127 ± 48 µM
- effect on endothelial-dependent vasorelaxation, in words ([7]; 5-ISMN 30 mg/kg, 5-day treatment): caused a reduced response to Ach
- % relaxation (Emax) ([7]; acute, 5-ISMN 30 mg/kg): 92.7 ± 4.3%
- % relaxation (Emax) ([7]; repeated (5-day) 5-ISMN 30 mg/kg): 78.2 ± 9.2%

- 15N-nitrite AUC0-24 ([1]; oral 100 mg/kg): 1225 µM·min
- 15N-nitrite Tmax ([1]; oral 100 mg/kg): 30 min
- 15N-nitrite AUC0-24 [2]: 2469 µM·min
- 15N-nitrite Tmax [2]: 180 min
SMILES: COC1=C(OC)C(=O)C(CCCCCCCCCCO[15N+](=O)[O-])=C(C)C1=O [^15N-Compound (6), 10-(4,5-dimethoxy-2-methyl-3,6-dioxocyclohexa-1,4-dienyl)decyl nitrate-nitrogen-15]

SMILES: O=[N+]([O-])O[C@@H]1CO[C@H]2[C@@H]1OC[C@@H]2O [5-ISM^15N, 5-isorbide mononitrate containing nitrogen-15, reference compound]
- 15N-nitrite AUC0-24 ([1]; oral 30 mg/kg): 2758 µM·min
- 15N-nitrite Tmax ([1]; oral 30 mg/kg): 30 min
- Cmax ([1]; oral 30 mg/kg): 27.5 ± 3 µM
- 15N-nitrite AUC0-24 [2]: 7399 µM·min
- 15N-nitrite Tmax [2]: 60 min
- Cmax [2]: 20.6 ± 4.2 µM
